# Test results: patent US20240124409A1, “GUAIANOLIDE SESQUITERPENE LACTONE DERIVATIVES AND PHARMACEUTICAL USE THEREOF” (NANJING UNIVERSITY OF CHINESE MEDICINE, priority 2021, published 2024)
# Assays:
# Solubility test in water = assay type: physicochemical; settings: thermodynamic from solid; deionized water, 37° C.
# Procedure: Saturated solutions were formulated, filtered and analyzed by HPLC with a sample volume of 1 μL, 3 μL, 5 μL, 10 μL, 15 µL and 20 μL sequentially, and the standard curves of the corresponding compounds were drawn.
# […] of the above compounds were formulated, dissolved by ultrasound for 4 h, and placed on a water bath at 37° C. to stand for 1 h. The resulting unsaturated solutions were centrifuged. 30 μL of supernatants were removed, diluted by adding 200 μL of deionized water, and then filtered.
# NLRP3 inflammasome = settings: read-out: inhibitory activity against the NLRP3 inflammasome activation, EC50; cited from earlier work
# [1] = Safety investigation of Compound 23, 30 days in mice; assay type: in vivo, C57BL/6 mice; settings: for body weight: in % (unit assumed)
smiles,measurement,setting,value
C=C1C(=O)O[C@@H]2[C@@H]3[C@]4(CC[C@@]3(C)O)C[C@]4(C)CC[C@@H]12 [Compound 1],solubility,Solubility test in water,1140 µg/mL
"C=C1C(=O)O[C@@H]2[C@H]3C(C)=CC[C@@]34O[C@@]4(C)CC[C@@H]12 [arglabin, reference compound]",EC50,NLRP3 inflammasome,10 nM
CN(C)C[C@@H]1C(=O)O[C@H]2[C@H]1CC[C@@]1(C)C[C@]13CC[C@@](C)(O)[C@H]23 [Compound 23],activities of the mice after each administration,[1]; 500 and 1000 mg/kg,relatively reduced
same,time to return to normal after administration,[1]; 500 and 1000 mg/kg,1 to 2 h
same,mortality,"[1]; 500 and 1000 mg/kg, 30 days",none of the mice die
same,effect on body weights,"[1]; 500 and 1000 mg/kg, female and male mice",no obvious effect on the body weights
same,body weight,"[1]; female, 500 mg/kg i.g. daily, Day 1",100.00 ± 0.00
same,body weight,"[1]; female, 500 mg/kg i.g. daily, Day 5",100.41 ± 0.43
same,body weight,"[1]; female, 500 mg/kg i.g. daily, Day 10",99.01 ± 1.34
same,body weight,"[1]; female, 500 mg/kg i.g. daily, Day 15",100.03 ± 0.95
same,body weight,"[1]; female, 500 mg/kg i.g. daily, Day 20",100.52 ± 0.74
same,body weight,"[1]; female, 500 mg/kg i.g. daily, Day 25",99.81 ± 1.72
same,body weight,"[1]; female, 500 mg/kg i.g. daily, Day 30",99.79 ± 2.55
same,body weight,"[1]; female, 1000 mg/kg i.g. daily, Day 1",100.00 ± 0.00
same,body weight,"[1]; female, 1000 mg/kg i.g. daily, Day 5",101.96 ± 0.55
same,body weight,"[1]; female, 1000 mg/kg i.g. daily, Day 10",101.80 ± 2.02
same,body weight,"[1]; female, 1000 mg/kg i.g. daily, Day 15",99.77 ± 2.60
same,body weight,"[1]; female, 1000 mg/kg i.g. daily, Day 20",101.04 ± 2.13
same,body weight,"[1]; female, 1000 mg/kg i.g. daily, Day 25",99.06 ± 3.56
same,body weight,"[1]; female, 1000 mg/kg i.g. daily, Day 30",100.67 ± 0.91
same,body weight,"[1]; male, 500 mg/kg i.g. daily, Day 1",100.00 ± 0.00
same,body weight,"[1]; male, 500 mg/kg i.g. daily, Day 5",100.31 ± 0.89
same,body weight,"[1]; male, 500 mg/kg i.g. daily, Day 10",101.51 ± 4.00
same,body weight,"[1]; male, 500 mg/kg i.g. daily, Day 15",99.27 ± 2.11
same,body weight,"[1]; male, 500 mg/kg i.g. daily, Day 20",101.29 ± 0.40
same,body weight,"[1]; male, 500 mg/kg i.g. daily, Day 25",98.93 ± 0.60
same,body weight,"[1]; male, 500 mg/kg i.g. daily, Day 30",100.10 ± 1.08
same,body weight,"[1]; male, 1000 mg/kg i.g. daily, Day 1",100.00 ± 0.00
same,body weight,"[1]; male, 1000 mg/kg i.g. daily, Day 5",101.48 ± 1.30
same,body weight,"[1]; male, 1000 mg/kg i.g. daily, Day 10",101.22 ± 0.84
same,body weight,"[1]; male, 1000 mg/kg i.g. daily, Day 15",100.47 ± 1.28
same,body weight,"[1]; male, 1000 mg/kg i.g. daily, Day 20",100.15 ± 2.76
same,body weight,"[1]; male, 1000 mg/kg i.g. daily, Day 25",98.35 ± 1.14
same,body weight,"[1]; male, 1000 mg/kg i.g. daily, Day 30",100.71 ± 0.53
